Consider three compounds from US20230265151A1, “GIP/GLP1 CO-AGONIST COMPOUNDS” (priority 2020, published 2023).

SMILES strings stand for the structures. Where two headings read alike, the source gives them in different places. Bounds are passed on as bounds.

The target in one test is T1, hGCGR (Homo sapiens, UniProt P47871).
T1 construct: expressed in transfected cells
Nature of the test: Functional cAMP formation (HTRF) in HEK-293 clonal cells expressing hGCGR, 0.1% bovine casein, without or with 1.0% human serum albumin. It counts as cell-based. In short, it runs like this:
(§1)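 Cells were stimulated with peptide for 30 min at 37° C, then lysed in buffer carrying cAMP-d2 and anti-cAMP Eu3+-cryptate for a competitive HTRF read after at least 60 min at room temperature. The 665/620 nm ratio was converted to nM cAMP against a standard curve.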

Test [1] deals with T2, human GIP receptor (hGIPR) (Homo sapiens, UniProt P48546).
T2 construct: expressed in transfected cells; crude membranes
T2 sequence (P48546 22-466): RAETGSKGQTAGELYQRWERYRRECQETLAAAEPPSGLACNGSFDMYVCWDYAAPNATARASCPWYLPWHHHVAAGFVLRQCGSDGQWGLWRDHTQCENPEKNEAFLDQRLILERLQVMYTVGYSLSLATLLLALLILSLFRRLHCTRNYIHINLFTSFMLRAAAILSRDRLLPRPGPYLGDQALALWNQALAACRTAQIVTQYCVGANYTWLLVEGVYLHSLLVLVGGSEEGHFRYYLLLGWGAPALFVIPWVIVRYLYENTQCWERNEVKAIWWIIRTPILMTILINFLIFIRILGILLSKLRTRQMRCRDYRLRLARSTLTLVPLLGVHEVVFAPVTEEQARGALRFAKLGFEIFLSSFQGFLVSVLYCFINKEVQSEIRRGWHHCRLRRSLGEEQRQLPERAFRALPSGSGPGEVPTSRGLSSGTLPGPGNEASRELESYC
Nature of the test: [125I]-GIP binding, SPA with membranes of CHO cells expressing hGIPR. Here is the method: Two methods are used for the preparation of crude cell membranes.
Method 1: Frozen cell pellets are lysed on ice in hypotonic buffer containing 50 mM Tris HCl, pH 7.5, and Roche Complete™ Protease Inhibitors with EDTA. […] The homogenate is centrifuged at 4° C. at 1100 × g for 10 minutes. The supernatant is collected and stored on ice while the pellets are resuspended in homogenization buffer and rehomogenized as described above. The homogenate is centrifuged at 1100 × g for 10 minutes. The second supernatant is combined with the first supernatant and centrifuged at 35000 × g for 1 hour at 4° C. The resulting membrane pellet is resuspended in homogenization buffer containing protease inhibitors at approximately 1 to 3 mg/mL, quick frozen in liquid nitrogen and stored as aliquots in a -80° C. freezer until use.
The homogenate is centrifuged at 4° C. at 1800 × g for 15 minutes. The supernatant is collected and stored on ice while the pellets are resuspended in homogenization buffer (without DNAse I) and rehomogenized as described above. The homogenate is centrifuged at 1800 × g for 15 minutes. The second supernatant is combined with the first supernatant and centrifuged an additional time at 1800 × g for 15 minutes. The overall supernatant is then centrifuged at 25000 × g for 30 minutes at 4° C. The resulting membrane pellet is resuspended in homogenization buffer (without DNAse I) containing protease inhibitors at approximately 1 to 3 mg/mL and stored as aliquots in a -80° C. freezer until use.
The binding buffer contains 25 mM HEPES, pH 7.4, 2.5 mM CaCl2, 1 mM MgCl2, 0.1% (w/v) bacitracin, 0.003% (w/v) TWEEN®-20, and Roche Complete™ Protease Inhibitors without EDTA. Peptides and GIP are thawed and 3 fold serially diluted in 100% DMSO (10 point concentration response curves). […] Plates are sealed and mixed on a plate shaker (setting 6) for 1 minute and read with a PerkinElmer Trilux MicroBeta® scintillation counter after 2.5 to 12 hours of incubation/settling time at room temperature.
Raw CPM data for concentration curves of peptides, Gcg, GLP-1, or GIP are converted to percent inhibition by subtracting nonspecific binding (binding in the presence of excess unlabeled Gcg, GLP-1, or GIP, respectively) from the individual CPM values and dividing by the total binding signal, also corrected by subtracting nonspecific binding. Data are analyzed using four-parameter (curve maximum, curve minimum, IC50, Hill slope) nonlinear regression routines (Genedata Screener, version 12.0.4, Genedata AG, Basal, Switzerland). […] Values for Ki are reported as the geometric mean, with error expressed as the standard error of the mean (SEM) and n is equal to the number of independent replicates (determined in assays performed on different days). Geometric Means are calculated as follows: […]
The Ki Ratio (Ki for native control peptide/Ki for test compound) at each receptor and each species is calculated. The Ki Ratio is a rapid indication of the apparent affinity of a peptide compared to the native control peptide.
n=⅟x means that only one value out of the total number of replicates (x) is used to express the mean. SEM is only calculated when n=2 or greater non-qualified results exist. Means are expressed as GeoMetric means with the standard error of the mean (SEM) and the number of replicates (n) indicated in parenthesis.

The target in a further test is hGLP-1R (Homo sapiens, UniProt P43220). The experiment in a line: Functional cAMP formation (HTRF) in HEK-293 clonal cells expressing hGLP-1R, 0.1% bovine casein, without or with 1.0% human serum albumin. It counts as cell-based. Also on record: expressed in transfected cells. To be noted: for Emax: HEK293, read-out: hGLP-1R Emax, % ± SEM, cAMP, 37° C., 0.1% bovine casein, percent of maximal response to GLP-1(7-36)NH2, arithmetic mean; for EC50: geometric mean. The method, boiled down: as §1
Sequence of hGLP-1R (P43220 24-463): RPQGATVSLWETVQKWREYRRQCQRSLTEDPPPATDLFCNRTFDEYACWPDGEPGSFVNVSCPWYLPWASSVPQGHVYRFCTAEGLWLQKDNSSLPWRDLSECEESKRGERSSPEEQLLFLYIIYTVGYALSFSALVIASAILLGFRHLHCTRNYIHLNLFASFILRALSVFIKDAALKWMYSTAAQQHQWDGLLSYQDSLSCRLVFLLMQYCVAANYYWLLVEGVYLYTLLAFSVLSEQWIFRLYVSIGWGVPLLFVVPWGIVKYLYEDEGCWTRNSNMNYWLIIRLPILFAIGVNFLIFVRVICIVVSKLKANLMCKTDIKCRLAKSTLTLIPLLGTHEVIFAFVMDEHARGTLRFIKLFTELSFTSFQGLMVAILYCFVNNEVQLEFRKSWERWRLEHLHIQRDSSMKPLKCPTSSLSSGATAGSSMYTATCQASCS

Another test deals with T3, hGIPR (Homo sapiens, UniProt P48546).
T3 construct: expressed in transfected cells
T3 sequence (P48546 22-466): T2 sequence (P48546 22-466)
Nature of the test: Functional cAMP formation (HTRF) in HEK-293 clonal cells expressing hGIPR, 0.1% bovine casein, without or with 1.0% human serum albumin. In kind it is cell-based. To be noted: for Emax: HEK293, read-out: hGIPR Emax, % ± SEM, cAMP, 37° C., 0.1% bovine casein and 1.0% human serum albumin, percent of maximal response to GIP(1-42)NH2; for EC50: geometric mean. The method, boiled down: as §1

Setting [2] is: hGCGR EC50, nM (SEM, n), cAMP, 37° C., 0.1% bovine casein (no human serum albumin), geometric mean.
[3] abbreviates: hGCGR EC50, nM (SEM, n), cAMP, 37° C., 0.1% bovine casein and 1.0% human serum albumin, geometric mean (SEM, n).
Where [4] appears, read: hGLP-1R EC50, nM (SEM, n), cAMP, 37° C., 0.1% bovine casein (no human serum albumin).
The mark [5] stands for this setting: hGIPR EC50, nM (SEM, n), cAMP, 37° C., 0.1% bovine casein (no human serum albumin).

T1 sequence (P47871 26-477): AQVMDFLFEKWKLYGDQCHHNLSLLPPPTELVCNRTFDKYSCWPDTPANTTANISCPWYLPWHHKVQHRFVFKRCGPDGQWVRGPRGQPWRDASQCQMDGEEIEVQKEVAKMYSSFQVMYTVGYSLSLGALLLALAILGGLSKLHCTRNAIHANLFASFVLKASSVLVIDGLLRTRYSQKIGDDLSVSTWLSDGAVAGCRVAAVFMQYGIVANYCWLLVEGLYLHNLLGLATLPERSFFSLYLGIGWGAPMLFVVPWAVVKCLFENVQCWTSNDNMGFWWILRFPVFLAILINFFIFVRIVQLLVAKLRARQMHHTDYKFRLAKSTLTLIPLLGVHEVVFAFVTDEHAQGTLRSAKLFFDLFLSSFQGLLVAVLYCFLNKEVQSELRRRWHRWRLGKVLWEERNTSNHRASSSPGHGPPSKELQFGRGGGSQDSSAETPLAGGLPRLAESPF

As to `CC[C@H](C)[C@H](NC(=O)[C@H](CC(C)C)NC(=O)[C@](C)(Cc1ccc(O)cc1)NC(=O)[C@H](CCCCNC(=O)COCCOCCNC(=O)COCCOCCNC(=O)CC[C@H](NC(=O)CCCCCCCCCOc1ccc(C(=O)O)cc1)C(=O)O)NC(=O)[C@@H](NC(=O)[C@H](Cc1ccccc1)NC(=O)[C@H](CCCN)NC(=O)C(C)(C)NC(=O)[C@H](CCC(N)=O)NC(=O)[C@H](C)NC(=O)[C@H](CCC(N)=O)NC(=O)[C@H](CCCN)NC(=O)[C@H](CC(=O)O)NC(=O)[C@H](CC(C)C)NC(=O)[C@](C)(CC(C)C)NC(=O)[C@@H](NC(=O)C(C)(C)NC(=O)[C@H](Cc1ccc(O)cc1)NC(=O)[C@H](CC(=O)O)NC(=O)[C@H](CO)NC(=O)[C@@H](NC(=O)[C@](C)(Cc1ccccc1F)NC(=O)[C@@H](NC(=O)CNC(=O)[C@H](CCC(=O)O)NC(=O)C(C)(C)NC(=O)[C@@H](N)Cc1ccc(O)cc1)[C@@H](C)O)[C@@H](C)O)[C@@H](C)CC)[C@@H](C)CC)C(=O)N[C@@H](CCCCNC(=O)COCCOCCNC(=O)COCCOCCNC(=O)CC[C@H](NC(=O)CCCCCCCCCOc1ccc(C(=O)O)cc1)C(=O)O)C(=O)NCC(=O)NCC(=O)N1CCC[C@H]1C(=O)N[C@@H](CO)C(=O)N[C@@H](CO)C(=O)NCC(=O)N[C@@H](C)C(=O)N1CCC[C@H]1C(=O)N1CCC[C@H]1C(=O)N1CCC[C@H]1C(=O)N[C@@H](CO)C(N)=O` [Example 492], the EC50 on hGCGR (setting [2]) is more than 9950 nM; at hGCGR (setting [3]) it was more than 9950 nM; at hGLP-1R (setting [4]), 0.143 nM; at hGIPR (setting [5]), 0.0125 nM. In test [1], this compound came in with a Ki of 0.0264 nM. In addition, the maximum response (Emax) on hGLP-1R was 117%; at hGIPR, 88.7%.

Turning to `CC[C@H](C)[C@H](NC(=O)[C@H](CC(C)C)NC(=O)[C@](C)(Cc1ccc(O)cc1)NC(=O)[C@@H](CCC(=O)O)NC(=O)[C@@H](NC(=O)[C@H](Cc1ccccc1)NC(=O)[C@H](CCC(=O)O)NC(=O)C(C)(C)NC(=O)[C@H](CCC(N)=O)NC(=O)[C@H](C)NC(=O)[C@H](CCCCNC(=O)[C@@H](N)CCCCNC(=O)[C@@H](N)CCCCNC(=O)CC[C@H](NC(=O)CCCCCCCCCCCCC(=O)O)C(=O)O)NC(=O)[C@H](CCCN)NC(=O)[C@H](CC(=O)O)NC(=O)[C@H](CC(C)C)NC(=O)[C@](C)(CC(C)C)NC(=O)[C@@H](NC(=O)[C@H](CO)NC(=O)[C@H](Cc1ccncc1)NC(=O)[C@H](CC(=O)O)NC(=O)[C@H](CO)NC(=O)[C@@H](NC(=O)[C@](C)(Cc1ccccc1F)NC(=O)[C@@H](NC(=O)CNC(=O)[C@H](CCC(=O)O)NC(=O)C(C)(C)NC(=O)[C@@H](N)Cc1ccc(O)cc1)[C@@H](C)O)[C@@H](C)O)[C@@H](C)CC)[C@@H](C)CC)C(=O)N[C@@H](CCC(=O)O)C(=O)NCC(=O)NCC(=O)N[C@@H](CCCCNC(=O)[C@@H](N)CCCCNC(=O)[C@@H](N)CCCCNC(=O)CC[C@H](NC(=O)CCCCCCCCCCCCC(=O)O)C(=O)O)C(=O)N[C@@H](CO)C(=O)N[C@@H](CO)C(=O)NCC(=O)N[C@@H](C)C(=O)N1CCC[C@H]1C(=O)N1CCC[C@H]1C(=O)N1CCC[C@H]1C(=O)N[C@@H](CO)C(N)=O` [Example 40], the concentration for a half-maximal effect (EC50) on hGCGR (0.1% bovine casein and 1.0% human serum albumin, 37° C., geometric mean, read-out: hGCGR EC50, nM (SEM, n)) was more than 9950 nM; on hGCGR (cAMP, incubated at 37° C., 0.1% bovine casein (no human serum albumin), geometric mean, read-out: hGCGR EC50, nM (SEM, n)) it was more than 9950 nM; on hGLP-1R (0.1% bovine casein and 1.0% human serum albumin, 37° C., read-out: hGLP-1R EC50, nM (SEM, n)) it was 6.69 nM; on hGLP-1R (cAMP, incubated at 37° C., 0.1% bovine casein (no human serum albumin), read-out: hGLP-1R EC50, nM (SEM, n)), 0.279 nM; at hGIPR (0.1% bovine casein and 1.0% human serum albumin, 37° C., read-out: hGIPR EC50, nM (SEM, n)), 0.301 nM; on hGIPR (cAMP, incubated at 37° C., 0.1% bovine casein (no human serum albumin), read-out: hGIPR EC50, nM (SEM, n)), 0.0116 nM. Also, in test [1] (human GIPR, geometric mean (SEM, n), read-out: Binding Affinity Ki, nM (SEM, n) hGIPR), the Ki came to 0.163 nM.

In the case of `CC[C@H](C)[C@H](NC(=O)[C@H](CC(C)C)NC(=O)[C@](C)(Cc1ccc(O)cc1)NC(=O)[C@H](CCCCNC(=O)CCCCCNC(=O)COCCOCCNC(=O)CC[C@H](NC(=O)CCCCCCCCCOc1ccc(C(=O)O)cc1)C(=O)O)NC(=O)[C@@H](NC(=O)[C@H](Cc1ccccc1)NC(=O)[C@H](CCCN)NC(=O)C(C)(C)NC(=O)[C@H](CCC(N)=O)NC(=O)[C@H](C)NC(=O)[C@H](CCC(N)=O)NC(=O)[C@H](CCCN)NC(=O)[C@H](CC(=O)O)NC(=O)[C@H](CC(C)C)NC(=O)[C@](C)(CC(C)C)NC(=O)[C@@H](NC(=O)C(C)(C)NC(=O)[C@H](Cc1ccncc1)NC(=O)[C@H](CC(=O)O)NC(=O)[C@H](CO)NC(=O)[C@@H](NC(=O)[C@](C)(Cc1ccccc1F)NC(=O)[C@@H](NC(=O)CNC(=O)[C@H](CCC(=O)O)NC(=O)C(C)(C)NC(=O)[C@@H](N)Cc1ccc(O)cc1)[C@@H](C)O)[C@@H](C)O)[C@@H](C)CC)[C@@H](C)CC)C(=O)N[C@@H](CCCCNC(=O)CCCCCNC(=O)COCCOCCNC(=O)CC[C@H](NC(=O)CCCCCCCCCOc1ccc(C(=O)O)cc1)C(=O)O)C(=O)NCC(=O)NCC(=O)N1CCC[C@H]1C(=O)N[C@@H](CO)C(=O)N[C@@H](CO)C(=O)NCC(=O)N[C@@H](C)C(=O)N1CCC[C@H]1C(=O)N1CCC[C@H]1C(=O)N1CCC[C@H]1C(=O)N[C@@H](CO)C(N)=O` [Example 455], the EC50 on hGCGR (setting [2]) is more than 9950 nM; at hGCGR (setting [3]) it was more than 9950 nM; on hGLP-1R (setting [4]) it was 0.219 nM; on hGIPR (setting [5]) it was 0.0146 nM. Further, in test [1], the affinity corresponds to a Ki of 0.0143 nM. In addition, the Emax at hGLP-1R was determined as 117%; at hGIPR, 91.8%.
